Experimental findings from article PMC6152192, “Novel Methylselenoesters as Antiproliferative Agents” (Molecules : A Journal of Synthetic Chemistry and Natural …, 2017) are described below.

The nature of data set [1]: Methylselenol (CH3SeH) release by hydrolysis, quantified with DTNB (Ellman's reagent). The class given is physicochemical. The conditions noted are these: 100 μM compound, 100 μM DTNB. The source says: The new compounds were designed as CH3SeH precursors. The chemical features of the selenoester functional group facilitate a nucleophilic attack (i.e., with water) which would deliver the CH3SeH residue. In order to verify if CH3SeH could be released from the molecules by hydrolysis and if the rate differed among the compounds, the reaction of CH3SeH with 5,5′-dithiobis(2-nitrobenzoic acid) (DTNB or Ellman’s reagent) in aqueous environment was monitored. Briefly, when the disulfide bridge of DTNB reacts with thiols or selenols, 2-nitro-5-thiobenzoate (TNB^2−) is released and the mixed disulfide or selenylsulfide is formed. Each released CH3SeH produces one yellow TNB^2− species, whose absorbance can be quantified at 412 nm (Figure 2A).
A stock solution of the compounds was prepared in anhydrous DMSO (10 mM). The compounds were placed in a 96-well plate in a final concentration of 100 μM. Reaction started after adding 200 μL of an aqueous 100 mM Na2HPO4 buffer (1 mM EDTA, pH = 8), containing 100 μM of DTNB from a freshly prepared 10 mM ethanolic stock, which were added just before starting the reaction. The DTNB concentration was quantified with a cysteine standard curve ([…]). Blanks for the compounds in the absence of DTNB were also included as well as a blank to measure the slow but spontaneous hydrolysis of DTNB, which was further subtracted from all the values. Absorbance was read at 412 nm in a FLUOstar Omega microplate reader (BMG LabTech, Ortenberg, Germany). Results represent means of triplicate values ± SD.
Figure 2 CH3SeH release rates are dependent on the chemical features of the molecule. Released CH3SeH was quantified through reaction with Ellman’s reagent (DTNB). (A) Proposed reaction between CH3SeH and DTNB; (B) Quantification of TNB^2− at different times. The compounds were tested at 100 μM in 200 μL of 100 mM phosphate buffer (1 mM EDTA, pH = 8). DTNB concentration was also 100 μM. Absorbance was followed at 412 nm over 72 h. A cysteine standard curve (7.5–150 μM) was used to calculate the concentration of TNB^2− over time. Compounds showing less than 15% hydrolysis at 72 h are not included, except for compound 5 as example. Error bars indicate SD of triplicates.
(DTNB colorimetry detects thiols as they appear.)

The subject of data set [2] is K-562 (chronic myelogenous leukemia). The data set can be described thus: MTT viability assay, K-562. The note with it: K-562, 72 h, MTT; for CC50: read-out: LC50 (the source's name). The class given is cell-based. The procedure, abridged: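 Cells (10,000/well; RPMI or, for BEAS-2B, DMEM with 10% FBS; 37 °C, 5% CO2) were treated 72 h with six concentrations from 0.1 to 100 μM, diluted from 0.01 M DMSO stock. MTT was added for 4 h, formazan dissolved in DMSO, absorbance read at 550 nm; GI50, TGI and LC50 derived.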
For orientation: Tetrazolium dyes change colour on reduction, which living cells bring about.

Consider “Methyl 3-chlorothiophen-2-carboselenoate [Compound 5]”, for which, in data set [1] (phosphate buffer pH 8, 72 h), the “hydrolysis at 72 h” value is recorded as “less than 15%”. In data set [2], it took 38.7 ± 2.1 µM to inhibit growth by half (GI50), the TGI (usually the concentration giving total growth inhibition) is 67.0 ± 1.9 µM and the CC50 came to 95.2 ± 2.2 µM.

“Dimethyl 2,5-furandicarboselenoate [Compound 15]”: the “CH3SeH release / hydrolysis rate” value in data set [1] (100 mM phosphate buffer, 1 mM EDTA, pH 8, followed over 72 h) is listed as “more sustained release”. In data set [2], it took 42 ± 3.8 µM to inhibit growth by half (GI50), the TGI turned out to be 70.6 ± 3.4 µM and the CC50 turned out to be 99.2 ± 5.3 µM.
